The structures appear in SMILES notation. Active and inactive are the calls of the source. The rule behind the calls is not given here.

Experiment [1] is described as follows: Binding affinity to recombinant His-tagged human cytosolic GPX4 U46C mutant expressed in Escherichia coli M15 by SPR analysis.
Experiment [2] concerns the target T1, Phospholipid hydroperoxide glutathione peroxidase GPX4 (Homo sapiens) (UniProt P36969).
T1 sequence (whole entry): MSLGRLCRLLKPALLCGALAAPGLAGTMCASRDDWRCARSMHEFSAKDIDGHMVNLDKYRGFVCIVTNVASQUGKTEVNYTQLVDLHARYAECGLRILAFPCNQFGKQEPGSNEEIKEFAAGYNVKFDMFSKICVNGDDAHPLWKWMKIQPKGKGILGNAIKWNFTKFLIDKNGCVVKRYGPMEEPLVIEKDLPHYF
In words: Activation of GPX4 in human HT1080 cells assessed as inhibition of erastin-induced ferroptosis at 125 uM preincubated for 30 mins followed by erastin addition measured after 24 hrs by MTS assay. Format: cell-based.

Experiment [3] has as its target T2, Polyunsaturated fatty acid 5-lipoxygenase (Homo sapiens) (UniProt P09917).
T2 sequence (whole entry): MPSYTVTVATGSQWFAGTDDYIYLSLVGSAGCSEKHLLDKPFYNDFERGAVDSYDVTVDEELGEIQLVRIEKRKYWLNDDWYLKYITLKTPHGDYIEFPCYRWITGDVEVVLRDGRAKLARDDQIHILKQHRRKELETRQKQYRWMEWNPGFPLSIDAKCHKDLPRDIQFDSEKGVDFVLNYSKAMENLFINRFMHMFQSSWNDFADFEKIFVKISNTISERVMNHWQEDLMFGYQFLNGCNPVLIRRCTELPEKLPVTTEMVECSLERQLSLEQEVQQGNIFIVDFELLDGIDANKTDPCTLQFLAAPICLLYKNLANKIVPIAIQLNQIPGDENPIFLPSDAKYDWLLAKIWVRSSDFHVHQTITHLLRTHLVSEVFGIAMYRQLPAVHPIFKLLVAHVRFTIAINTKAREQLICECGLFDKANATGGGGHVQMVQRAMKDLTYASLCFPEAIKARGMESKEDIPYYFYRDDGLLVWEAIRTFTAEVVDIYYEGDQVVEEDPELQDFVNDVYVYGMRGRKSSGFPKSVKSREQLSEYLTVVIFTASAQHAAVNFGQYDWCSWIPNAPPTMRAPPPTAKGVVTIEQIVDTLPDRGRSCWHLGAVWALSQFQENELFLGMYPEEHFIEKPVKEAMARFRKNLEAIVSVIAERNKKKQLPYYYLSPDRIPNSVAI
In words: Inhibition of human 5-LOX at 500 uM preincubated for 10 mins followed by arachidonic acid substrate addition in presence of H2DCFDA by spectrophotometric method.

The target in experiment [4] is T3, Polyunsaturated fatty acid lipoxygenase ALOX12 (Homo sapiens) (UniProt P18054).
T3 sequence (whole entry): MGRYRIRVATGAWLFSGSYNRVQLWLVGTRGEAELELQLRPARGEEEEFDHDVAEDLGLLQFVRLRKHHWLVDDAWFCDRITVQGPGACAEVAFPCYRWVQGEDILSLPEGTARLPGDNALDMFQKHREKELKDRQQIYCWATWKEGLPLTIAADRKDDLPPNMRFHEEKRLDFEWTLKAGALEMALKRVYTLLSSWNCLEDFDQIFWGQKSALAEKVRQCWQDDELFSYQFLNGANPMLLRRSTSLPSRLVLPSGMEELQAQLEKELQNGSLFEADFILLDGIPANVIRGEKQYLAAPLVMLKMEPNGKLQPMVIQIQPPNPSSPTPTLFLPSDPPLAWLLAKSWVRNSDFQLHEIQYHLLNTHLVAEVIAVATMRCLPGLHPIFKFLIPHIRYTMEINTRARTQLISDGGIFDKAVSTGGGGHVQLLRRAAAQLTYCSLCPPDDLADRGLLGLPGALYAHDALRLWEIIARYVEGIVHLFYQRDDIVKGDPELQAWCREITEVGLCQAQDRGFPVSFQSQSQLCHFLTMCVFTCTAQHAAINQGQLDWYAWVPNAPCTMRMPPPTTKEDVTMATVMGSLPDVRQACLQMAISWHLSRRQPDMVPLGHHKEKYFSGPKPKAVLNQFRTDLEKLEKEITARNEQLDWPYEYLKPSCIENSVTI
In words: Inhibition of 12-LOX (unknown origin) at 500 uM preincubated for 1 mins followed by arachidonic acid substrate addition by spectrophotometric method.

The target of experiment [5] is T1, Phospholipid hydroperoxide glutathione peroxidase GPX4 (Homo sapiens). The experiment in a line: Activation of GPX4 (unknown origin) expressed in HEK293T cells harboring luc2P/NF-kBRE/Hygro plasmid assessed as inhibition of TNFalpha-stimulated NFkB activation preincubated for 30 mins followed by TNFalpha addition and measured after 6 hrs by luciferase reporter gene assay. Format: cell-based.

Experiment [6] has the same target. The experiment in a line: Activation of GPX4 in A23187-stimulated human PMN leukocytes assessed as increase in 12-HETE preincubated for 15 mins followed by A23187 addition and measured after 120 mins by LC-MS analysis.
Experiment [7] deals with Prostaglandin G/H synthase 1 (Homo sapiens) (UniProt P23219). The experiment in a line: Inhibition of COX1 (unknown origin) at 500 uM preincubated for 15 mins followed by arachidonic acid substrate addition in presence of TMPD by spectrophotometric method.
Chain of Prostaglandin G/H synthase 1 (Homo sapiens) (P23219 whole entry): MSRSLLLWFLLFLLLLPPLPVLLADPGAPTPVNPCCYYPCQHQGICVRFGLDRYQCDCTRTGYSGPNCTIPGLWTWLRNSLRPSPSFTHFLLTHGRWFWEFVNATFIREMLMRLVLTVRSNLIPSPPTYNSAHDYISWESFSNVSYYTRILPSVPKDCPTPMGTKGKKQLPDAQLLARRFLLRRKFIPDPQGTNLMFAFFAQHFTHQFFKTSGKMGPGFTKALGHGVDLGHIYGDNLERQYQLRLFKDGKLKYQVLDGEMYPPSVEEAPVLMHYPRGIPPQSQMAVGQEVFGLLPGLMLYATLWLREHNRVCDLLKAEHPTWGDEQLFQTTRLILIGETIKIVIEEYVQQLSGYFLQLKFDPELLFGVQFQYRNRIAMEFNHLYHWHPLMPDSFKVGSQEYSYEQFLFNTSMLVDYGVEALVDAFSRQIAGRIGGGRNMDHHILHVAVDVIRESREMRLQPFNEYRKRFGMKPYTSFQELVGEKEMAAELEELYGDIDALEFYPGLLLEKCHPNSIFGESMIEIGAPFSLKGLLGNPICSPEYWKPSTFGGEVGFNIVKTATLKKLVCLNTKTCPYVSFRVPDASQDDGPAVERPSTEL
Experiment [8] concerns the target T1, Phospholipid hydroperoxide glutathione peroxidase GPX4 (Homo sapiens). The experiment in a line: Activation of GPX4 (unknown origin) expressed in HEK293T cells harboring luc2P/NF-kBRE/Hygro plasmid assessed as inhibition of IL1beta-stimulated NFkB activation preincubated for 30 mins followed by […] and measured after 6 hrs by luciferase reporter gene assay. It is filed as cell-based. On the technique in general: A reporter such as luciferase makes a cellular process visible.

The species named for experiment [9] is Homo sapiens. The experiment in a line: Activation of recombinant His-tagged human cytosolic GPX4 U46C mutant expressed in Escherichia coli M15 assessed as increase in oxidized glutathione-mediated oxidation of NADPH to NADP+ using tert-butyl hydroperoxide as substrate preincubated for 5 mins followed by substrate addition measured for 6 mins by glutathione reductase enzyme coupled fluorescence assay.

In experiment [10] the target is T1, Phospholipid hydroperoxide glutathione peroxidase GPX4 (Homo sapiens). In words: Activation of GPX4 in A23187-stimulated human PMN leukocytes assessed as increase in 15-HETE preincubated for 15 mins followed by A23187 addition and measured after 120 mins by LC-MS analysis.
The nature of experiment [11]: Antioxidant activity assessed as DPPH radical scavenging activity at 500 uM. It is filed as functional.
The target in experiment [12] is T4, Prostaglandin E synthase (Homo sapiens) (UniProt O14684).
T4 sequence (whole entry): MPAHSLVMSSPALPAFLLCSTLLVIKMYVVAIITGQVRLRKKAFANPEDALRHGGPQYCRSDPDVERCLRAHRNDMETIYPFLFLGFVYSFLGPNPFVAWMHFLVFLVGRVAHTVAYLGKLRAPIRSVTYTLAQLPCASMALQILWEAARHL
In words: Inhibition of mPGES1 (unknown origin) at 500 uM preincubated for 15 mins followed by PGH2 substrate addition and measured after 1 min by EIA relative to control.

A word on the Kd: it is the free concentration of one partner at which half of the binding sites on the other are occupied at equilibrium, for simple one-to-one binding. As a reminder, the inhibition is the change of the read-out against control, counted positive when it falls. As for `NS(=O)(=O)c1ccc(NC(S)=NCc2ccc(Cl)cc2)cc1`, the Kd in experiment [1] is 63 µM. Moreover, the inhibition result in experiment [2] was “Active”. Also, the inhibition result in experiment [3], in [4] and in [7] was “inactive” throughout. For the same compound, the inhibition result was “Dose-dependent effect” in experiment [5], “Dose-dependent effect” in experiment [8] and 23% in experiment [12]. In addition, the Activity entry in experiment [6], in experiment [9] and in experiment [10] was “Dose-dependent effect” throughout. For the same compound, the EC150 in [9] is 248 µM. Also, the outcome in [11] was inactive.

The record behind these values is ChEMBL document CHEMBL4308834, “Novel Allosteric Activators for Ferroptosis Regulator Glutathione Peroxidase 4” (J Med Chem, 2018).
